How the values were obtained:
hCGRPR = target: T1, hCGRPR (Homo sapiens, UniProt O60894+Q16602); experiment: Radioligand binding assay, CHO cells, hCGRPR; details: radioligand [125]hGCRPα
T1 construct: host or cells: CHO
Protocol: To define whether β–lactam derivative RGM8-51 could bind to CGRPR, CB2 and M3 receptors, in vitro binding assays were performed, using CHO cell lines transfected with these receptors. The degree of binding was determined by using specific radioligands for each receptor (Table 2, footnote).
These studies were subcontracted to Eurofins-CEREP or Eurofins-PANLABS. Briefly, agonists and antagonist assays were performed in cell cultures overexpressing the corresponding channel (CHO: TRPV1 and TRPA1; HEK293: TRPV3 and ASIC3). In vitro pharmacology, cellular channel functional assays: the compound was prepared in assay buffer to the final concentration, 10 μM. […] The agonist assay was conducted on fluorimeter instruments where the test compound, vehicle controls, and reference agonist were added to the assay plate after a fluorescence baseline was established. […] For the antagonist assay, the compound was pre-incubated for five minutes at room temperature, and then challenged with the EC80 concentration of the reference agonist after establishment of a fluorescence baseline. […] Binding assay results are expressed as a percent of control specific binding. […] Aqueous solubility (μM) was determined by comparing the peak area of the principal peak in a calibration standard (200 μM) containing organic solvent (methanol/water, 60/40, v/v) with the peak area of the corresponding peak in a buffer sample. […]

[1] = In vitro metabolism in human liver microsomes; format: in vitro ADME
rats = experiment: Behaviour observed after i.p. injection in the CCI study; format: in vivo, rat; details: i.p. 30 mg/kg
Protocol: This behavior lasted 3-5 min and could possibly be related to the TRPV1 agonist activity of compound RGM8-51.
Rats were allocated into 2 groups to receive RGM8-51 and vehicle (DMSO 2% i.pl., or 150 µL/kg i.p.) by either the i.pl. (10 µg in 20 µL; n = 5 animals) or i.p. (10 or 30 mg/kg in 150 µL/kg; n = 8 animals) route. Responses to cold/heat/mechanical stimulation were assessed 30 min before and 30 min after RGM8-51 or vehicle injection. Behavioral testing prior to drug administration served to ascertain baseline conditions and the stability of cold, heat and mechanical hypersensitivity after surgery. RGM-8-51 stock was prepared in DMSO (Sigma-Aldrich) and diluted in saline for injections. Data are given as the mean ± standard error of the mean (SEM) of the corresponding number of behavioral measurements/animals used. Statistical analysis was performed by using the paired t-test (GraphPad 8; San Diego, CA, USA).

T1 sequence (Q16602 23-461): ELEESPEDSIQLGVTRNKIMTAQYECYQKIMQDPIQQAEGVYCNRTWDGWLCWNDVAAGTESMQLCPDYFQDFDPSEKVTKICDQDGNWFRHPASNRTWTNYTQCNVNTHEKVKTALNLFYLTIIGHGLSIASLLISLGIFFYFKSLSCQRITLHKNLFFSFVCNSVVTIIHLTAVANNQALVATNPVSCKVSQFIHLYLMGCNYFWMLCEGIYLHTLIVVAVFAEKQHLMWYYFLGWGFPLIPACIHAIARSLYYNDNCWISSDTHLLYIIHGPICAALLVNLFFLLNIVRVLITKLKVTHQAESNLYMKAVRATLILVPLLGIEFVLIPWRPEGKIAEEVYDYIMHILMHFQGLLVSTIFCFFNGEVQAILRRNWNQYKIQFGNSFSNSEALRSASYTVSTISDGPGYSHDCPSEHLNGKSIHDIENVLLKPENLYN
T1 sequence (O60894 27-148 partner): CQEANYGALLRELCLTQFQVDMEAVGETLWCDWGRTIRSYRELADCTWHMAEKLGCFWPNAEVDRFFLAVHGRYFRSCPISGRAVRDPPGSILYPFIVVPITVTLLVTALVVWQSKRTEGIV

SMILES: C[C@@H]1C(=O)N(C[C@H](Cc2ccccc2)N(Cc2ccccc2)Cc2ccccc2)[C@]1(Cc1ccccc1)C(=O)OC(C)(C)C [RGM8-51, 4(S)-Benzyl-3S-methyl-4-(tert-butoxy)carbonyl-1-[(2′S-dibenzylamino-3′-phenyl)prop-1′-yl]-2-oxoazetidine]
- Binding hCGRPR (%), inhibition of specific binding (hCGRPR; 10 μM): did not show significant affinity
- inhibition at 10 µM (hCGRPR; read-out: Binding hCGRPR (%), inhibition of specific binding): -1 ± 4.3%
- Metabolism Clint [1]: 614 µL/min/mg
- Metabolism t1/2 [1]: 11 min
- microsomal CLint ([1]; human, liver microsomes): 614 µL/min/mg
- half-life ([1]; human, liver microsomes, read-out: Metabolism t1/2): 11.3 min
- duration of writhing behavior (rats): 3 to 5 min
- writhing behavior (rats): writhing behavior was observed in a small number of animals
